This is an account of results in a melting point compilation (Tetko et al.; mined from patent text by program, amines drawn as free bases though some values may be those of a salt).

As to `CCOC(=O)c1c(Cn2cncn2)nc2sc3cnccc3c2c1-c1ccc(OC)c(OC)c1`, the melting point is 172 to 174 °C.

Compound `CN(C)CCN(C1CCN(C)CC1)S(=O)(=O)c1ccc(Nc2nccc(Nc3ccc(F)cc3)n2)cc1` had a melting point of 135 to 137 °C.

The compound `CSc1csc(NC(=O)c2ccc(OC(C)=O)cc2)n1` showed a melting point of 186 to 189 °C.

Regarding `O=C1CCOc2c(O)cccc21`, the melting point fell in the range of 93 to 96 °C.

On to `CCOC(=O)c1c(C)cc(NC(=O)CCl)c(C(=O)O)c1C`, for which the melting point was 124 to 125 °C.

Compound `NC(=O)n1ccc(-c2ccc(Sc3ccc(F)cc3)cc2)n1` returned a melting point of 150 to 155 °C.

With `Cc1cc(C)c2nc(COc3ccc(CC4SC(=O)N(C(c5ccccc5)(c5ccccc5)c5ccccc5)C4=O)cc3)n(C)c2n1` (configuration not stated), the melting point fell in the range of 96 to 99 °C.

The compound `CC(CCn1ccnc1)N=C1c2cccc3cccc(c23)N1C(c1ccccc1)c1ccccc1` (configuration not stated) showed a melting point of 55 to 64 °C.

Consider `CN1C(=O)N=NC1CSc1ccccc1OCCc1coc(-c2ccccc2)n1` (configuration not stated), for which the melting point lay in the range of 130 to 132 °C.

`CC(C)(Cc1ccccc1)C(=O)C(Cc1ccccc1)n1cncn1` (configuration not stated): the melting point was in the range of 45 to 50 °C.

Take `CC(=O)Nc1ccc(NCCOS(C)(=O)=O)c([N+](=O)[O-])c1`: the melting point was 166 °C.

On to `COC(=O)COc1ccc(Cn2c(-c3ccc(C(F)(F)F)cc3)c(C)c3cc(OCc4ccccc4)ccc32)cc1`, for which the melting point came out at 221 °C.

For `CNS(=O)(=O)Cc1ccc(NN=CCCC#N)cc1`, the melting point was in the range of 124 to 125 °C.

`CN(C)C(=O)C(C)(C)CCCCC(=O)CCCCC(C)(C)C(=O)O` registered a melting point of 91.5 to 93.5 °C.

With `Cc1cc(C)c2c(O)c3c(=O)[nH][nH]c(=O)c3nc2c1`, the melting point is more than 395 °C.

For `CC(C)NC(=O)c1ccc(N2CCC(N3C(=O)OCc4ccccc43)CC2)c(S(C)(=O)=O)c1`, the melting point was in the range of 240 to 242 °C.

Regarding `C=CCN1C(=O)NC(C)(C)C1=O`, the melting point was in the range of 66.2 to 68.7 °C.

The compound `O=C(Cl)c1ccc(OCc2ccccc2)c(Cl)c1` displayed a melting point of 78 to 80 °C.

In turn, `O=C(Cc1ccn(-c2ccc(F)cc2)c1)N1C(=O)OC[C@@H]1Cc1ccccc1` gave a melting point of 106 to 108 °C.

In turn, `COc1ccc2c(c1)C(=O)C(Cc1ccccn1)CO2` (configuration not stated) yielded a melting point of 112 to 114 °C.

As to `COc1cc2cc[nH]c2cc1OCCCN1CCC(c2noc3cc(F)ccc23)CC1`, the melting point fell in the range of 156 to 158 °C.

The compound `CCCCNc1c(C(=O)OCC)c(C)nc2[nH]c(O)nc12` yielded a melting point of 249 to 252 °C.

`Cc1[nH]c(=O)n(-c2cc(C(=O)OC(C)C)c(Cl)cc2F)c(=O)c1Cl` returned a melting point of 198 to 201 °C.

`c1ccc2c(Nc3ccc4c(c3)CCC4)ncc(Sc3ccncc3)c2c1` registered a melting point of 100 to 103 °C.

Turning to `O=C(O)c1cc(OCc2ccccc2)c(OCc2ccccc2)c(OCc2ccccc2)c1`, the melting point fell in the range of 194 to 195 °C.

`O=C(OC1CCCCC1)c1ccc(Nc2nc(Nc3ccc(C(=O)OC4CCCCC4)cc3)nc(Nc3ccc(C(=O)OC4CCCCC4)cc3)n2)cc1`: the melting point fell in the range of 171 to 173 °C.

`CCN(CC)C(=O)c1cc(C(C)(C)C)ccc1-c1ccc(OC)cc1` returned a melting point of 89 to 92 °C.

`Cn1c(=S)c(-c2cccs2)nc2ccccc21`: the melting point was 113 °C.

`CCCCc1nc2ccc([C@H]3C[C@H](CO)ON3C)cc2c(=O)n1Cc1ccc(-c2ccccc2-c2nnn[nH]2)cc1` (relative stereo) showed a melting point of 110 °C.

`CC(=O)OC1Cc2ccc(F)cc2/C1=C/C(N)=O` (configuration not stated): the melting point was 202 to 203 °C.

In the case of `CC1(c2ccccc2)SC(=S)N(Nc2ccccc2)C1=NOC(=O)Nc1ccc(Cl)c(Cl)c1` (configuration not stated), the melting point is 95 to 96 °C.

For `C=CC(=O)N[C@@H](C=O)[C@@H](O)[C@H](O)[C@H](O)CO`, the melting point was in the range of 124 to 125 °C.

For the compound `NC(=O)N(O)CCOc1ccc2c(c1)CCN(Cc1ccc(-c3ccc(F)cc3)cc1)C2=O`, the melting point lay in the range of 171 to 172 °C.

As for `Cc1cc(Oc2cccc(C(F)(F)F)c2)nn1C(=O)NCC1CCCO1` (configuration not stated), the melting point lay within 101 to 102 °C.

Take `CC(C)C(C#N)C(=O)NC(N)=O` (configuration not stated): the melting point was 173 to 174 °C.

In the case of `O=c1ccn([C@H]2[C@H](O)[C@H](O)[C@@H](CO)C23CC3)c(=O)[nH]1`, the melting point is 114 to 116 °C.

Take `O=C(O)c1cc2cc(Cl)ccc2nc1NC(Cc1ccc(Oc2ccc3ccccc3n2)cc1)C(=O)O` (configuration not stated): the melting point was found to be 136 °C.

Take `CS(=O)(=O)c1ccc(C(CC2CCCC2)C(=O)Nc2nccs2)cc1C(F)(F)F` (configuration not stated): the melting point was in the range of 117 to 121 °C.

In turn, `CCCCC(=O)c1c(CN(CC)C(C)(C)C)nc2cc(OC)c(OC)cc2c1-c1ccc(OC)c(OC)c1` registered a melting point of 137 to 139 °C.

`O=C(c1ccc(Nc2ncnc3ccccc23)cc1)N1CCN(c2ncc(Cc3ccccc3)cn2)CC1` yielded a melting point of 245 to 247 °C.

`COc1ccc2c(C)nc(=O)[nH]c2c1` came in with a melting point of 251 to 254 °C.

As to `CSC1CC(=O)N1Cc1ccccc1` (configuration not stated), the melting point was 26 to 28 °C.

`COC(=O)C=C(C)c1ccc(-c2ccc(F)cc2F)cc1` registered a melting point of 90 to 92 °C.

`CC1=C(C=O)COc2ccccc21` gave a melting point of 68 to 70 °C.

Turning to `Nc1cccc(C(=O)O)c1NCc1ccccc1Cl`, the melting point lay within 203 to 204 °C.

With `COC(=O)C1=C2Nc3ccccc3C23CCN(Cc2ccccc2)C3CC1` (configuration not stated), the melting point was 58 to 60 °C.

`CCCOC(=O)c1cn(CC)c2nc(N3CCNCC3)c(F)cc2c1=O` returned a melting point of 133 to 135 °C.

As for `Cc1nnc(SCC2=C(C(=O)OC(c3ccccc3)c3ccccc3)N3C(=O)C(N)C3SC2)s1` (configuration not stated), the melting point is 157 to 159 °C.

The compound `O=C(O)COc1c(Br)cc(C(=O)c2c(CCc3ccccc3)oc3ccccc23)cc1Br` had a melting point of 163 to 164 °C.

On to `CC(C)Oc1ccc(NCCS(=O)(=O)NCCCOc2cccc(CN3CCCCC3)c2)cc1`, for which the melting point lay within 110 to 122 °C.

Compound `Oc1ccc(CCc2cc(O)cc(O)c2)cc1` returned a melting point of 160 to 161 °C.

Compound `Clc1ccc2c(c1)c(-c1ccccc1)nc1nncn12` displayed a melting point of 295 to 297 °C.

As to `CN1OCC(=Cc2cc(C(C)(C)C)c(O)c(C(C)(C)C)c2)C1=O`, the melting point was in the range of 194 to 196 °C.

Compound `CCCc1c(C(=O)OCC)[nH]c(CC)c1C` registered a melting point of 73 to 74 °C.

Compound `CN(C)CCn1c(=O)c(=NO)nc(-c2ccccc2)c2ccccc21` showed a melting point of 232 to 234 °C.

The compound `COc1ccc(-c2nc3ncccc3[nH]2)c2cc(C(C)C)oc12` had a melting point of 242 °C.

Consider `CCCCc1c(C(=O)OCC)cc(OC)c2ccc(OC)cc12`, for which the melting point lay in the range of 44 to 45 °C.

Compound `CC(C)(C)c1cc(NC(=O)Nc2ccc(OCCN3CCOCC3)c3ccccc23)[nH]n1` registered a melting point of 206 to 207 °C.

The compound `Clc1cc(Cl)nc(NC2CCCC2)n1` came in with a melting point of 48 to 52 °C.

Compound `Nc1cccc2cccc(S)c12` yielded a melting point of 69 to 72 °C.

Take `Cc1ccc(N2C(=O)C(O)=C(C(=O)c3ccc(C(C)C)cc3)C2c2ccc(OC(C)C)nc2)nn1` (configuration not stated): the melting point was found to be 282 °C.

With `CON(C(=O)c1cn(C)nc1C(F)F)C(C)c1cccc(I)c1` (configuration not stated), the melting point lay in the range of 136 to 138 °C.
